From PubChem BioAssay (NCI)
Several values for one entry are separate records, joined by “and”; a condition that tells them apart may be missing. Equal entries are not always repeated.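 Five compound concentrations were applied to cells in 96-well plates for 48 hours; endpoints were derived by simple linear interpolation of the resulting dose-response curve. Abbreviation: GI50, concentration required for 50% inhibition of growth. TGI is the concentration that stops growth completely.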

What was measured:
Assay in all cases: DTP human tumour cell line panel, 48 h
A549 NSCLC = system: A549 NSCLC
PC-3 prostate = system: PC-3 prostate
SK-OV-3 ovarian = system: SK-OV-3 ovarian
DU-145 prostate = system: DU-145 prostate
SK-MEL-28 melanoma = system: SK-MEL-28 melanoma
UO-31 renal = system: UO-31 renal
MALME-3M melanoma = system: MALME-3M melanoma
UACC-257 melanoma = system: UACC-257 melanoma
SNB-75 CNS = system: SNB-75 CNS
786-0 renal = system: 786-0 renal

Structure (SMILES)	GI50 (A549 NSCLC)	TGI (A549 NSCLC)	GI50 (PC-3 prostate)	TGI (PC-3 prostate)	GI50 (SK-OV-3 ovarian)	TGI (SK-OV-3 ovarian)	GI50 (DU-145 prostate)	TGI (DU-145 prostate)	GI50 (SK-MEL-28 melanoma)	TGI (SK-MEL-28 melanoma)	GI50 (UO-31 renal)	TGI (UO-31 renal)	GI50 (MALME-3M melanoma)	TGI (MALME-3M melanoma)	GI50 (UACC-257 melanoma)	TGI (UACC-257 melanoma)	GI50 (SNB-75 CNS)	TGI (SNB-75 CNS)	GI50 (786-0 renal)	TGI (786-0 renal)
CCN1C(=O)N(CC)C2C1NN=c1s/c(=C3\C(=O)N(CC(C)(C)C)c4ccccc43)c(=O)n12 (stereo unspecified)	4.35 µM	36.4 µM	4.31 µM	31.5 µM	10.7 µM	74.6 µM	3.79 µM	18.6 µM	6.94 µM	22 µM	3.65 µM	18.2 µM	10 µM	25.5 µM	13.1 µM	37.9 µM	2.77 µM	24.2 µM	5.65 µM	27.8 µM
CCCCCOc1ccc(/C=N/Nc2cc(C)nc3ccc(Br)cc23)cc1	1.9 µM	3.69 µM	1.55 µM	3.02 µM	1.75 µM	3.18 µM	1.81 µM	3.25 µM	1.65 µM	3.1 µM	1.57 µM	3 µM	1.88 µM	3.46 µM	1.88 µM	3.6 µM	1.77 µM	3.39 µM	1.8 µM	3.43 µM
c1ccc2c(c1)c1c(c3ccccc32)CN2CCCC2C1 (stereo unspecified)		17.9 µM		13.4 µM		> 100 µM		> 100 µM		12.9 µM		11.8 µM		7.14 µM		20.3 µM		35.3 µM		23.1 µM
O=C(O)c1ccc(OCc2ccccc2)c(Cl)c1		> 100 µM		> 100 µM		> 100 µM		> 100 µM		> 100 µM		> 100 µM		> 100 µM		> 100 µM		> 100 µM		> 100 µM
COCC1(CO)C(=O)C2CCN1CC2 (stereo unspecified)	> 79 µM	> 100 µM	36 µM	> 58.4 µM	> 51 µM	> 80.9 µM	17.7 µM	32.3 µM	14.5 µM	28.6 µM	15.1 µM	30 µM	12.6 µM	28.3 µM	17.7 µM	34 µM	21.9 µM	> 94.2 µM	17.4 µM	35.5 µM
O=C(Nc1ccc(-n2ccc3c(NC(=O)c4ccccc4)nccc32)cc1)Nc1ccc(Cl)c(Cl)c1	1.01 µM	2.57 µM	1.06 µM	> 26.6 µM	1.2 µM	3.29 µM	1.57 µM	3.92 µM	1.49 µM	3.07 µM	1.6 µM	4.1 µM	1.7 µM	3.78 µM	1.96 µM	4.52 µM	0.489 µM	2.34 µM	1.01 µM	2.36 µM
C1=C\COCc2cc(ccc2OCCN2CCCC2)Nc2nccc(n2)-c2cccc(c2)COC/1	2.03 µM	5.72 µM	1.61 µM	5.43 µM	3.62 µM	6.19 µM	1.55 µM	5.53 µM	2.1 µM	5.33 µM	0.722 µM	4.01 µM	2.13 µM	5.32 µM	2.53 µM	5.66 µM	1.64 µM	4.75 µM	3.51 µM	5.18 µM
O=C(c1ccc(/C=C/c2n[nH]c3ccccc23)cc1)N1CCNCC1	2.95 µM and 2.57 µM	> 10 µM and 39.4 µM	5.02 µM and 3.12 µM	> 10 µM and 35.8 µM	> 10 µM and 5.15 µM	> 10 µM and 20.4 µM	5.76 µM and 4.15 µM	> 10 µM and 27.5 µM	1.71 µM and 5.99 µM	3.34 µM and 19.8 µM	2.94 µM and 2.95 µM	> 10 µM and 15.1 µM	1.52 µM and 1.16 µM	3.09 µM and 9.38 µM	1.76 µM and 7.57 µM	3.3 µM and 21 µM	3.81 µM and 2.37 µM	> 10 µM and 9.14 µM	9.53 µM and 7.98 µM	> 10 µM and 23 µM
N=C(N)c1ccc2nc(-c3cc(CC(=O)N[C@@H](CC(=O)O)C(=O)O)cc(-c4cc(S(N)(=O)=O)ccc4O)c3O)[nH]c2c1	> 100 µM	> 100 µM	> 100 µM	> 100 µM	> 100 µM	> 100 µM	> 100 µM	> 100 µM	> 100 µM	> 100 µM	> 100 µM	> 100 µM	> 100 µM	> 100 µM	> 100 µM	> 100 µM	> 100 µM	> 100 µM	> 100 µM	> 100 µM
C=C1C(=O)OC2CC(C)C3(O)CCC(=O)C3(C)CC12 (stereo unspecified)		> 100 µM		> 100 µM		> 100 µM		> 100 µM		> 100 µM		> 100 µM		69.5 µM		> 100 µM		84.3 µM		59.7 µM
CC(=O)Oc1ccccc1C(=O)Nc1ncc([N+](=O)[O-])s1	2.94 µM	> 100 µM	1.66 µM	6.42 µM and > 51.6 µM	3.2 µM	> 80.3 µM	4.51 µM	> 100 µM	2.48 µM	15.2 µM and > 100 µM	2.16 µM		1.48 µM		2.16 µM		1.6 µM	7.13 µM and > 67.9 µM	2.35 µM	
Cc1cc(C)c(NC(=O)c2sc3nc4c(cc3c2N)CN(Cc2ccccc2)CC4)c(C)c1	4.11 µM	> 100 µM	3.13 µM	> 100 µM	5.35 µM	> 100 µM	2.62 µM	7.65 µM	6.97 µM	40.4 µM	4.78 µM	93.9 µM	3.44 µM	42 µM	6.71 µM	> 100 µM	2.35 µM	11 µM	3.48 µM	> 100 µM
COc1cc(C(=O)N2CCN(c3ncccn3)CC2)c(N)cc1OCc1ccccc1	> 100 µM	> 100 µM	> 100 µM	> 100 µM	> 100 µM	> 100 µM	37.2 µM	> 100 µM	> 100 µM	> 100 µM	> 100 µM	> 100 µM	> 100 µM	> 100 µM	> 100 µM	> 100 µM	50.7 µM	> 100 µM	> 100 µM	> 100 µM
CC(C)(S)C(N)C(=O)O (stereo unspecified)	1780 µM	> 5000 µM	1320 µM	> 5000 µM	2600 µM	> 5000 µM	1600 µM	> 5000 µM	> 5000 µM	> 5000 µM	> 5000 µM	> 5000 µM	1130 µM	3400 µM and > 100 µM	4860 µM	> 5000 µM	> 5000 µM	> 5000 µM	> 5000 µM	> 5000 µM
